In patent US11555072B2, “A33 antibody compositions and methods of using the same in radioimmunotherapy” (MEMORIAL SLOAN KETTERING CANCER CENTER, priority 2017, dated 2023):

How the values were obtained:
LS174T tumors = experiment: s.c. LS174T xenograft with s.c. PBMCs; type: in vivo, mice; details: 6 doses over 3 weeks
Procedure: (§1) In vivo tumor therapy. For subcutaneous (s.c.) tumor models, LS174T, Colo205 or SNU16 cells were combined with fresh PBMCs at a 1:1 ratio, mixed with […]® (volume of cell:gel=1:2), and implanted (100 μl/mouse) at the flank of Balb/c Rag2^−/−IL2Rγ^−/− (DKO) mice (now commercially available from Taconic as CIEA BRG mice). Treatment started after confirmation of tumor presence with a BIW schedule at 100 μg/mouse and continued for 3-4 weeks. Tumor growth was monitored by weekly measurement of tumor volume using a caliper or a digital device Peira TM900 Scanner (Peira Scientific Instruments, Turnhout, Belgium).
HuA33-BsAb cured MSI tumor LSI74T in a s.c. xenograft model and suppressed tumor growth in an i.p. model. LS174T cells were mixed with PBMCs at a 1:1 ratio and implanted subcutaneously in DKO mice. […] Mice from tumor+PBMC group developed tumor ulceration and had to be euthanized.

SNU16 tumors = experiment: s.c. SNU16 gastric cancer xenograft with PBMCs; type: in vivo, mice; details: s.c. SNU16 mixed with human PBMCs
Procedure: as §1
HuA33-BsAb inhibited growth of gastric cancers in a s.c. xenograft model. GPA33 is expressed in a subset of gastric cancer cells. […] Unlike NSG mice, DKO mice were more resistant to engraftment of human PBMCs.

GPA33 = biological target: T1, GPA33 (Homo sapiens, UniProt Q99795); experiment: FACS staining of tumor cell lines; type: cell-based; details: panel of GPA33(+) and GPA33(−) cell lines
T1 construct: endogenous in cells; host or cells: human colon cancer cell lines (e.g. LS174T, SW1222, Colo205) and gastric cancer cell line SNU16
T1 sequence (Q99795 22-319): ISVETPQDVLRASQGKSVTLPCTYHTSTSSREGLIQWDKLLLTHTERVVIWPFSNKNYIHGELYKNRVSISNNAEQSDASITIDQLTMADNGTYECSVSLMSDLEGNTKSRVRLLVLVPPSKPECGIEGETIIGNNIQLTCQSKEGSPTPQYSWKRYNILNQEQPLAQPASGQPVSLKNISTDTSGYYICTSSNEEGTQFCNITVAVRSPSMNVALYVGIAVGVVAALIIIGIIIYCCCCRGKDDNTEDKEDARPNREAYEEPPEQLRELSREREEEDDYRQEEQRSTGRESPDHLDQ
Text: (§2) Antibodies and flow cytometry. Antibodies anti-hCD25-PE, anti-CD69-PE, anti-hCD8-APC, anti-hCD45-PECy7, anti-hCD4-PE, anti-hCD4-BV421, anti-hCD62L-PercpCy5.5, anti-hPD1-BV421, anti-hCD45RO-PECy7, were purchased from BIOLEGEND® (San Diego, Calif.). Goat anti-human IgG-PE was purchased from SouthernBiotech (Birmingham, Ala.). Streptavidin-PE, anti-hCD4-APC and anti-hCD25-APC were purchased from BD Biosciences (San Jose, Calif.). All FACS analysis was done using FACSCalibur or LSRII system (BD Biosciences, San Jose, Calif.) and analyzed using FlowJo (FLOWJO, Ashland, Oreg.).
(§3) The avidities of huA33-BsAb towards GPA33 at both 25° C. and 37° C. were measured using GPA33 immobilized CM5 chips.

T cells [1] = experiment: In vivo T cell proliferation assay; details: CFSE-labeled PBMCs + Colo205 s.c. in DKO mice, antibody i.v. next day, tumors analyzed 4 days later
Procedure: To determine if T cells can be activated in vivo, an in vivo proliferation assay was conducted by mixing CFSE-labeled PBMCs with Colo205 cells and the mixture was implanted subcutaneously onto DKO mice. huA33-BsAb was injected intravenously the next day and the tumors were isolated after another 4 days and analyzed by FACS.

T cells [2] = experiment: Cytokines and cytolytic molecules release assay; type: cell-based, human; details: T cells + Colo205, E:T 5:1, over 4 days
Procedure: Cytokines and cytolytic molecules release assay. T cells were purified from PBMCs using pan T cell isolation kit (Miltenyi Biotec, Cambridge, Mass.). Target and control tumor cells were incubated with 2×10^6 cells/well at an effector to target ratio of 5:1 in 24-well plates in triplicates, with 2 ml total volume per well. Culture supernatants were collected at 24 hours, 48 hours, 72 hours and 96 hours and cytokine levels were measured with flow cytometry using LEGENDplex™ human CD8/NK Panel (BIOLEGEND®, San Diego, Calif.) according to the manufacturer's protocol.
HuA33-BsAb induced secretion of inflammatory cytokines and cytolytic molecules. The secreted cytokine profile of T cells activated by huA33-BsAb in the presence of target tumors was examined. Total T cells were purified from PBMCs and cultured in the presence of Colo205 tumor cells at an effector to target ratio of 5:1. To estimate nonspecific activation, SKMEL5 cells were used as a negative control. Cell culture supernatants were collected daily over 4 days and the levels of cytokines and cytotoxic molecules were measured using a flow cytometry based multiplex method. […] Similarly, a significant amount of IL-6 was secreted by activated T cells. Th17 cytokine IL-17a was also secreted at high levels.

CD3 on T cell surface = biological target: T2, CD3 on T cell surface (Homo sapiens, UniProt P07766); experiment: FACS staining of activated T cells; type: cell-based
T2 construct: endogenous in cells
Text: as §2, §3

T2 sequence (P07766 23-207): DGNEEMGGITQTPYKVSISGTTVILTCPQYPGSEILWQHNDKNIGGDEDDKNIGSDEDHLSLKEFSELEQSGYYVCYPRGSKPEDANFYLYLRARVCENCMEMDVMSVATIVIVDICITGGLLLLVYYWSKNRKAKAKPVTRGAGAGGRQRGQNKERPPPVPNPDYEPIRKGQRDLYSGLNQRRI
T2 sequence (P09693 23-182 partner): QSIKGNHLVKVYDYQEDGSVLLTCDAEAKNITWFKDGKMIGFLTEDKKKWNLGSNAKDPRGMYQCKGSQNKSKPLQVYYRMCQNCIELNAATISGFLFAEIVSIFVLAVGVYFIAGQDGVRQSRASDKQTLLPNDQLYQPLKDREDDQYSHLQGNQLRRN
T2 sequence (P04234 22-171 partner): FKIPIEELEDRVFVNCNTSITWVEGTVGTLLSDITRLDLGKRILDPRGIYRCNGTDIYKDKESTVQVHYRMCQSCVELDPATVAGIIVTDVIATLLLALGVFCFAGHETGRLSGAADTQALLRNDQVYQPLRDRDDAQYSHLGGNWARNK
T2 sequence (P20963 22-164 partner): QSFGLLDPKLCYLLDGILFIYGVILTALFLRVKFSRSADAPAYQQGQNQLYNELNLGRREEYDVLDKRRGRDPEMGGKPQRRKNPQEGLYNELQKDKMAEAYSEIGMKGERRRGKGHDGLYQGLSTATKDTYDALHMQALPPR

Substance: huA33-BsAb: huA33 IgG with humanized OKT3 scFv fused to light chain C-terminus, N297A and K322A; SEQ ID NO: 19 and 21
- time mice remained tumor free (LS174T tumors): at least 120 days
- tumor response (LS174T tumors): effectively cured the mice
- survival (SNU16 tumors): significantly prolonged survival
- tumor response (SNU16 tumors): effectively cured the mice harboring s.c. tumors
- FACS staining of cancer cell lines (GPA33): stained colon cancer cell lines and one gastric cancer cell line but not GPA33(−) neuroblastoma cell line IMR32, osteosarcoma cell line TC32 or melanoma cell line SKMEL5
- CD4(+) and CD8(+) T cells that upregulated CD25 expression while undergoing cell division (T cells [1]): around 25%
- release of cytotoxic components (sFasL, sFas, Granzyme A, Granzyme B, Perforin, Granulysin) (T cells [2]): all released in the supernatant
- secretion of cytokines by activated T cells (T cells [2]): both Th1 cytokines (IL-2, IFNγ, TNFα) and Th2 cytokines (IL-4, IL-10) were secreted by activated T cells
- staining of activated T cells (CD3 on T cell surface): bound to CD3 on T cell surface
